Laboratory results from patent publication US12516022B2, “Derivatives of aryl hydrocarbon receptor agonists” (AZORA THERAPEUTICS, INC., priority 2021, dated 2026).

Test: Time course of conversion to indirubin in FaSSIF at 37° C.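 Also: test compound, about 1-3 mg in 5 mL FaSSIF, sampled and analysed by UPLC-MS with PDA UV (210-400 nm), QDa mass and evaporative light scattering detection.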
Assay type: physicochemical
Conditions: for Conversion to indirubin: over a 24 hour period

SMILES	indirubin (FaSSIF 37° C. 24 h) [%]	indirubin methylene alcohol (FaSSIF 37° C. 24 h) [%]	starting material (prodrug compound) (FaSSIF 37° C. 24 h) [%]	indirubin (FaSSIF 37° C., 15 min) [%]	indirubin methylene alcohol (FaSSIF 37° C., 15 min) [%]	starting material (prodrug compound) (FaSSIF 37° C., 15 min) [%]	indirubin (FaSSIF 37° C., 30 min) [%]	indirubin methylene alcohol (FaSSIF 37° C., 30 min) [%]	starting material (prodrug compound) (FaSSIF 37° C., 30 min) [%]	indirubin (FaSSIF 37° C., 1 h) [%]	indirubin methylene alcohol (FaSSIF 37° C., 1 h) [%]	starting material (prodrug compound) (FaSSIF 37° C., 1 h) [%]	indirubin (FaSSIF 37° C., 2 h) [%]	indirubin methylene alcohol (FaSSIF 37° C., 2 h) [%]	starting material (prodrug compound) (FaSSIF 37° C., 2 h) [%]	Conversion to indirubin (FaSSIF 37° C.)
CC(=O)N1CCN(CN2C(=O)/C(=C3\Nc4ccccc4C3=O)c3ccccc32)CC1 [drawing 258]	37	14	10	8	12	31	12	14	37	12	12	30	21	10	29	40-60%
O=C1/C(=C2/C(=O)N(CN3CCC(F)(F)CC3)c3ccccc32)Nc2ccccc21 [drawing 260]	40	0	52	45	0	54	29	0	39	18	0	37	49	0	51	20-40%
CNCCNC(=O)N1C(=O)/C(=C2\Nc3ccccc3C2=O)c2ccccc21.Cl [drawing 264]	0	0	100	0	0	100	0	0	100	0	0	100	0	0	100	0-20%
CN(C)CCN(C)CN1C(=O)/C(=C2\Nc3ccccc3C2=O)c2ccccc21 [drawing 253]	87	7	0	90	7	0	90	7	0	89	6	0	85	6	0	80-100%
O=C1/C(=C2/C(=O)N(CN3CCC3)c3ccccc32)Nc2ccccc21 [drawing 266]	20	7	62	9	5	72	8	5	79	10	5	80	13	4	75	0-20%
CN1CCN(CN2C(=O)/C(=C3\Nc4ccccc4C3=O)c3ccccc32)CC1 [drawing 265]	30	0	53	8	0	80	12	0	74	11	0	77	18	0	68	0-20%
O=C1/C(=C2/C(=O)N(CO)c3ccccc32)Nc2ccccc21 [drawing 259]	17	–	73	12	–	81	15	–	82	14	–	80	17	–	79	20-40%
O=C1/C(=C2/C(=O)N(COS(=O)(=O)O)c3ccccc32)Nc2ccccc21 [drawing 262]	12	83	0	7	79	0	14	73	0	7	81	0	7	83	0	0-20%
